Laboratory results taken from patent publication US20220306585A1, “PYRAZOLE DERIVATIVES FOR CONTROLLING ARTHROPODS” (Bayer Animal Health GmbH, priority 2019, published 2022).
Converted amounts (≈) assume the structure as drawn.

Columns and labels:
[1] = Measurement of stability of prodrugs in buffer at pH 7.4; type: physicochemical; conditions: PBS buffer pH 7.4, 37° C., HPLC peak area, read-out: % Recovery after 24 h (stability at pH 7.4)
Experimental: Preparation of the PBS buffer solution pH 7.4: 90 g sodium chloride, 13.61 g potassium dihydrogen phosphate, 83.35 g 1M aqueous sodium hydroxide were dissolved in water. More water was added up to a total volume of 1 L. This solution was diluted 1:10 with water. Eventually, pH was adjusted to pH 7.4 by the addition of phosphoric acid.
Measurement of Stability of Prodrugs in Buffer at pH 7.4
0.15 mg of the test compound were dissolved in 0.1 mL dimethylsulfoxide and 0.4 mL acetonitrile. For complete dissolution, the HPLC vial with the sample solution was shaken and treated with ultrasound. Then, 1.0 mL of PBS buffer solution pH 7.4 was added and the sample was vortexed. The sample solution was analysed by HPLC (method 8) to determine the amount of the test compound at a particular time over a period of 24 h at 37° C. The peak areas, given as percentage of total area, are used for quantification. In addition, the reaction mixture was analysed by method 9 (HPLC-MS) at the final timepoint.

[2] = Degradation of prodrugs and release of parent drug in rat plasma; type: in vitro ADME; conditions: male, Hannover-Janvier RjHan, rat plasma (Li-heparin), 37° C., percent area of prodrug at t0
Experimental: Measurement of Release of Parent Drug in Rat Plasma 1 mg of the test compound was dissolved in 0.5 mL acetonitrile/dimethylsulfoxide 9:1. For complete dissolution the HPLC vial was shaken and treated with ultrasound. 20 μL of this solution were added to 1 mL of rat plasma (Li-heparin plasma, Hannover-Janvier rat, RjHan male) with vortexing at a temperature of 37° C. Aliquots (100 μL each) were taken at 0.17, 0.5, 1, 1.5, 2 and 4 hours. Each aliquot was transferred to a vial containing 300 μL of acetonitrile/citric acid buffer pH 3 8:2. These solutions were centrifuged at 5000 rpm for 10 minutes. The supernatant was analysed by HPLC (Method 8) to determine the amount of the test compound. In addition, the reaction mixture was analysed by method 9 (HPLC-MS) at the final timepoint. Both decrease of the prodrug concentration and increase of parent drug concentration were monitored. All data is given as percent area of the prodrug at to.

[3] = tested on: Dermacentor variabilis nymph; assay: Antiparasitic activity after administration to rats: ticks; type: in vivo; conditions: for tick efficacy on rats compared with parent drug: sc, versus parent drug also injected subcutaneously; for In-vivo Efficacy SD2 / In-vivo Efficacy SD9 / In-vivo Efficacy SD16 / In-vivo Efficacy SD23 / In-vivo Efficacy SD30 / In-vivo Efficacy SD37: Dermacentor variabilis nymph; for In-vivo Efficacy SD2: study day 2; for In-vivo Efficacy SD9: study day 9; for In-vivo Efficacy SD16: study day 16; for In-vivo Efficacy SD23: study day 23; for In-vivo Efficacy SD30: study day 30; for In-vivo Efficacy SD37: study day 37
Experimental: (§1) Measurement of the Antiparasitic Activity after Administration of a Prodrug to Rats Compounds were dissolved in the appropriate volume of glycerol formal (p.a.) just before application to the animals (dose volume was adjusted to 0.03 mL/kg bodyweight). 5 rats per group were either injected intraperitoneally or subcutaneously. Rats were infested with 30 Dermacentor variabilis nymphs on study days −2, 7, 14, 21, 28, 35 and 30 adult Ctenocephalides fleas on study days −1, 8, 15, 22, 29, 36. Parasite counts were performed on study days 2, 9, 16, 23, 30, 37. Percent efficacy was calculated as arithmetic mean parasite numbers as life attached tick numbers and live flea numbers of the respective study group in comparison to parasite counts on a placebo-treated control group. Infestation of groups with less than 75% efficacy on two consecutive counting occasions will terminated for the respective parasite.

[4] = tested on: Ctenocephalides felis adult; assay: Antiparasitic activity after administration to rats: fleas; type: in vivo; conditions: for flea efficacy on rats compared with parent drug: sc, versus parent drug also injected subcutaneously; for In-vivo Efficacy SD2 / In-vivo Efficacy SD9 / In-vivo Efficacy SD16 / In-vivo Efficacy SD23 / In-vivo Efficacy SD30 / In-vivo Efficacy SD37: Ctenocephalides felis adult; for In-vivo Efficacy SD2: study day 2; for In-vivo Efficacy SD9: study day 9; for In-vivo Efficacy SD16: study day 16; for In-vivo Efficacy SD23: study day 23; for In-vivo Efficacy SD30: study day 30; for In-vivo Efficacy SD37: study day 37
Experimental: as §1

[5] = Measurement of solubility in buffer at pH 6.5; type: physicochemical; conditions: aqueous buffer, kinetic from dmso stock; PBS buffer pH 6.5, shaken 24 h at rt, LC-MSMS; read-out: Solubility of example compounds at pH 6.5
Experimental: Measurement of Solubility in Buffer at pH 6.5 2-4 mg of the test compound are dissolved in DMSO to reach a concentration of 50 g/L (solution A). To 10 μL of this solution 960 μL PBS buffer pH 6.5 are added (final concentration: […]); the mixture is shaken for 24 h at rt in a 96 well plate. An aliquot is centrifuged at 42000 rpm für 30 min. The supernatant is diluted with acetonitrile/water (8:2) 1:10 and 1:1000 resp. This diluted samples are analyzed by LC-MSMS. Calibration: 10 μL of solution A are diluted with 823 μL DMSO (final concentration: 600 μg/mL), which is further diluted with acetonitrile/water 8:2 by a factor of 100 (provides solution B). The calibration curve is obtained from solution B by further diluting with acetonitrile/water 8:2 with target concentrations of 1.2-12-60-600 ng/mL and injecting these four solutions for MS measurement. PBS-Puffer: 6.18 g sodium chloride and 3.96 g sodium dihydrogen phosphate are dissolved in 1 L aqua dist., the pH is adjusted to 6.5 with IN sodium hydroxide.

Row | Compound | recovery at 24 h, 0.1 mg/mL [1] | recovery at 0.17 h, 39 µg/mL [2] | recovery at 0.5 h, 39 µg/mL [2] | recovery at 1 h, 39 µg/mL [2] | recovery at 1.5 h, 39 µg/mL [2] | recovery at 2 h, 39 µg/mL [2] | recovery at 4 h, 39 µg/mL [2] | solubility at 24 h [5] | tick efficacy on rats compared with parent drug [3] | flea efficacy on rats compared with parent drug [4] | also measured
1 | Cn1nc(C(F)(F)C(F)(F)F)c(C(F)(F)F)c1-n1cc(-c2ccc(Cl)c(C(=O)N(COC(=O)C3CC3C(=O)O)C3(C#N)CC3)c2)cn1 (centres unmarked) [Example 1, 2-({[{2-Chloro-5-[2′-methyl-5′-(pentafluoroethyl)-4′-(trifluoromethyl)-2′H-[1,3′-bipyrazol]-4-yl]benzoyl}(1-cyanocyclopropyl)amino]methoxy}carbonyl)cyclopropane-1-carboxylic acid] | 100% | 93% | 88% | 80% | 74% | 66% | 49% | 331 µg/mL (≈ 476 µM) | superior | superior | –
2 | N#CC1(N(COC(=O)c2ccc(C(=O)O)cc2)C(=O)c2cc(-c3cnn(-c4c(Cl)cc(C(F)(C(F)(F)F)C(F)(F)F)cc4OC(F)(F)F)c3)ccc2Cl)CC1 [Example 3, 4-({[(2-Chloro-5-{1-[2-chloro-4-(1,1,1,2,3,3,3-heptafluoropropan-2-yl)-6-(trifluoromethoxy)phenyl]-1H-pyrazol-4-yl}benzoyl)(1-cyanocyclopropyl)amino]methoxy}carbonyl)benzoic acid] | 99% | 100% | 100% | 100% | 100% | 100% | 100% | 3 µg/mL (≈ 3.63 µM) | – | – | In-vivo Efficacy SD2 ([3]; 12.74 mg/kg sc): 99%; In-vivo Efficacy SD9 ([3]; 12.74 mg/kg sc): 98%; In-vivo Efficacy SD16 ([3]; 12.74 mg/kg sc): 93%; In-vivo Efficacy SD23 ([3]; 12.74 mg/kg sc): 96%; In-vivo Efficacy SD30 ([3]; 12.74 mg/kg sc): 85%; In-vivo Efficacy SD37 ([3]; 12.74 mg/kg sc): 48%; In-vivo Efficacy SD2 ([4]; 12.74 mg/kg sc): 100%; In-vivo Efficacy SD9 ([4]; 12.74 mg/kg sc): 100%; In-vivo Efficacy SD16 ([4]; 12.74 mg/kg sc): 100%; In-vivo Efficacy SD23 ([4]; 12.74 mg/kg sc): 96%; In-vivo Efficacy SD30 ([4]; 12.74 mg/kg sc): 80%; In-vivo Efficacy SD37 ([4]; 12.74 mg/kg sc): 55%
3 | Cn1nc(C(F)(F)C(F)(F)F)c(C(F)(F)F)c1-n1cc(-c2ccc(Cl)c(C(=O)N(COC(=O)CCCC(=O)O)C3(C#N)CC3)c2)cn1 [Example 4, 5-{[{2-Chloro-5-[2′-methyl-5′-(pentafluoroethyl)-4′-(trifluoromethyl)-2′H-[1,3′-bipyrazol]-4-yl]benzoyl}(1-cyanocyclopropyl)amino]methoxy}-5-oxopentanoic acid] | 100% | 73% | 42% | 18% | 9% | 0% | 0% | 179 µg/mL (≈ 257 µM) | superior | superior | –

Continued, in another order:

Row | recovery at 24 h, 0.1 mg/mL [1] | recovery at 0.17 h, 39 µg/mL [2] | recovery at 0.5 h, 39 µg/mL [2] | recovery at 1 h, 39 µg/mL [2] | recovery at 1.5 h, 39 µg/mL [2] | recovery at 2 h, 39 µg/mL [2] | recovery at 4 h, 39 µg/mL [2] | solubility at 24 h [5] | Compound | tick efficacy on rats compared with parent drug [3] | flea efficacy on rats compared with parent drug [4] | also measured
4 | 100% | 89% | 77% | 66% | 56% | 48% | 29% | 10 µg/mL (≈ 12.6 µM) | N#CC1(N(COC(=O)CCCC(=O)O)C(=O)c2cc(-c3cnn(-c4c(Cl)cc(C(F)(C(F)(F)F)C(F)(F)F)cc4OC(F)(F)F)c3)ccc2Cl)CC1 [Example 9, 5-{[(2-Chloro-5-{1-[2-chloro-4-(1,1,1,2,3,3,3-heptafluoropropan-2-yl)-6-(trifluoromethoxy)phenyl]-1H-pyrazol-4-yl}benzoyl)(1-cyanocyclopropyl)amino]methoxy}-5-oxopentanoic acid] | – | – | In-vivo Efficacy SD2 ([3]; 12.22 mg/kg sc): 99%; In-vivo Efficacy SD9 ([3]; 12.22 mg/kg sc): 100%; In-vivo Efficacy SD16 ([3]; 12.22 mg/kg sc): 96%; In-vivo Efficacy SD23 ([3]; 12.22 mg/kg sc): 98%; In-vivo Efficacy SD30 ([3]; 12.22 mg/kg sc): 85%; In-vivo Efficacy SD37 ([3]; 12.22 mg/kg sc): 49%; In-vivo Efficacy SD2 ([4]; 12.22 mg/kg sc): 100%; In-vivo Efficacy SD9 ([4]; 12.22 mg/kg sc): 97%; In-vivo Efficacy SD16 ([4]; 12.22 mg/kg sc): 96%; In-vivo Efficacy SD23 ([4]; 12.22 mg/kg sc): 97%; In-vivo Efficacy SD30 ([4]; 12.22 mg/kg sc): 91%; In-vivo Efficacy SD37 ([4]; 12.22 mg/kg sc): 46%
5 | 100% | 98% | 96% | 92% | 89% | 86% | 74% | 5 µg/mL (≈ 6 µM) | N#CC1(N(COC(=O)[C@H]2CC[C@H](C(=O)O)CC2)C(=O)c2cc(-c3cnn(-c4c(Cl)cc(C(F)(C(F)(F)F)C(F)(F)F)cc4OC(F)(F)F)c3)ccc2Cl)CC1 [Example 11, (trans)-4-({[(2-Chloro-5-{1-[2-chloro-4-(1,1,1,2,3,3,3-heptafluoropropan-2-yl)-6-(trifluoromethoxy)phenyl]-1H-pyrazol-4-yl}benzoyl)(1-cyanocyclopropyl)amino]methoxy}carbonyl)cyclohexane-1-carboxylic acid] | – | – | In-vivo Efficacy SD2 ([3]; 12.84 mg/kg sc): 100%; In-vivo Efficacy SD9 ([3]; 12.84 mg/kg sc): 100%; In-vivo Efficacy SD16 ([3]; 12.84 mg/kg sc): 100%; In-vivo Efficacy SD23 ([3]; 12.84 mg/kg sc): 100%; In-vivo Efficacy SD30 ([3]; 12.84 mg/kg sc): 96%; In-vivo Efficacy SD37 ([3]; 12.84 mg/kg sc): 71%; In-vivo Efficacy SD2 ([4]; 12.84 mg/kg sc): 100%; In-vivo Efficacy SD9 ([4]; 12.84 mg/kg sc): 100%; In-vivo Efficacy SD16 ([4]; 12.84 mg/kg sc): 100%; In-vivo Efficacy SD23 ([4]; 12.84 mg/kg sc): 100%; In-vivo Efficacy SD30 ([4]; 12.84 mg/kg sc): 97%; In-vivo Efficacy SD37 ([4]; 12.84 mg/kg sc): 76%
